Literature values as cited in publication PMC7395068, “The evolution of strategies to minimise the risk of human drug-induced liver injury (DILI) in drug discovery and development” (Archives of Toxicology, 2020).
Read-outs that look alike come from different tables or passages of the source.

Experiments:
[1] = system: isolated mouse liver mitochondria; conditions: cited from earlier work
[2] = cited from earlier work
[3] = system: human hepatocytes; conditions: In vitro Assay; ref Xu 2008; cited from earlier work
[4] = system: primary human hepatocytes, NIH3T3 fibroblasts, BSEP, CYP3A4; conditions: cited from earlier work
[5] = system: THLE or HepG2 cells, isolated mitochondria, BSEP; conditions: In vitro Assay; ref Aleo 2019; cited from earlier work
[6] = ref Chen 2016; cited from earlier work
[7] = In vitro Assay, ref Porceddu 2012
[8] = isolated mouse liver mitochondria, EC20<=2uM, ref Porceddu 2012

| SMILES | in vitro data EC2<=1x Cmax [1, 7] | in vitro data EC20<=2uM [1, 7] | In vivo DILI ([2]; ref Porceddu 2012) | also measured |
| --- | --- | --- | --- | --- |
| Nc1c(Br)cc(Br)cc1CN[C@H]1CC[C@H](O)CC1 [Ambroxol] | -VE |  |  |  |
| Cc1cc(=O)n(-c2ccccc2)n1C [Antipyrine] | +VE | -VE |  | In vivo DILI ([2]; in vivo): -VE |
| O=C(/C=C/c1ccc(O)c(O)c1)c1ccc(O)cc1O [Butein] |  |  |  | in vitro data EC20<=2uM [1, 8]: +VE |
| COc1cc(CNC(=O)CCCC/C=C/C(C)C)ccc1O [Capsaicin] | -VE | +VE | -VE |  |
| O=P(O)(O)C(Cl)(Cl)P(=O)(O)O [Clodronate] | -VE | -VE | -VE |  |
| COc1cc(/C=C/C(=O)CC(=O)/C=C/c2ccc(O)c(OC)c2)ccc1O [Curcumin] | -VE |  |  |  |
| Clc1ccc(COC(Cn2ccnc2)c2ccc(Cl)cc2Cl)cc1 (stereo not drawn) [Econazole] | +VE | +VE | +VE |  |
| CCOC(=O)c1ccc(O)cc1 [Ethyl paraben] |  |  |  | in vitro data EC20<=2uM [1]: -VE |
| O=C(O)c1ccccc1Nc1cccc(C(F)(F)F)c1 [Flufenamic acid] | +VE | +VE | +VE |  |
| O=C(O)c1cc(O)c(O)c(O)c1 [Gallic acid] | +VE |  |  |  |
| Cc1cc2c(C(C)C)c(O)c(O)c(C=O)c2c(O)c1-c1c(C)cc2c(C(C)C)c(O)c(O)c(C=O)c2c1O [Gossypol] |  | +VE | +VE |  |
| O=C(O)c1nn(Cc2ccc(Cl)cc2Cl)c2ccccc12 [Lonidamine] | +VE | +VE | +VE |  |
| CCOC(=O)[N-]c1cn(N2CCOCC2)n[o+]1 [Molsidomine] | -VE | -VE | -VE |  |
| CO[C@]12C[C@@H](COC(=O)c3cncc(Br)c3)CN(C)[C@@H]1Cc1cn(C)c3cccc2c13 [Nicergoline] | -VE | +VE | -VE |  |
| Oc1cc(O)cc(O)c1 [Phloroglucinol] |  |  |  | in vitro data EC20<=2uM [1, 8]: -VE |
| Oc1ccc(/C=C/c2cc(O)cc(O)c2)cc1 [Resveratrol] | -VE |  |  |  |
| O=C1NS(=O)(=O)c2ccccc21 [Saccharin] | +VE | -VE | +VE |  |
| OC[C@H]1O[C@@](CO)(O[C@H]2O[C@H](CO)[C@@H](O)[C@H](O)[C@H]2O)[C@@H](O)[C@@H]1O [Sucrose] |  |  |  | in vitro data EC20<=2uM [1]: -VE |
| Cc1c(Cl)cccc1Nc1ccccc1C(=O)O [Tolfenamic acid] | +VE | +VE | +VE |  |
| CC1(C)S[C@@H]2[C@H](NC(=O)[C@H](N)c3ccccc3)C(=O)N2[C@H]1C(=O)O [ampicillin] | +VE |  |  |  |
| Cc1c(N(C)CS(=O)(=O)[O-])c(=O)n(-c2ccccc2)n1C.[Na+] [dipyrone] |  |  |  | in vitro data EC20<=2uM [1]: +VE |
| Cc1cn(-c2cc(NC(=O)c3ccc(C)c(Nc4nccc(-c5cccnc5)n4)c3)cc(C(F)(F)F)c2)cn1 [nilotinib] | +VE |  |  |  |
| Cc1cc2nc3c(=O)[nH]c(=O)nc-3n(C[C@H](O)[C@H](O)[C@H](O)CO)c2cc1C [riboflavin] | -VE |  |  |  |
| NCCS(=O)(=O)O [taurine] |  |  |  | in vitro data EC20<=2uM [1, 8]: -VE |
| CCCc1nc2c(C)cc(-c3nc4ccccc4n3C)cc2n1Cc1ccc(-c2ccccc2C(=O)O)cc1 [telmisartan] |  |  |  | Structural based (HCI) [3]: -VE; Cellular toxicity (3T3 cells) [4]: -VE; Combined Assay [4]: +VE; GSH adduct HML [4]: -VE; Hepatocyte cellular toxicity [4]: +VE; MitoTox 3T3 [4]: -VE; TDI CYP3A4 [4]: -VE; hBSEP inhibition [4]: +VE; Partition Hybrid HRM Score [5]: +VE; Ro2 Hybrid HRM Score [5]: +VE; DILI +VE (5-8), DILI -VE (-4) [6]: +VE; DILI severity category [6]: vLess-DILI-Concern; In vivo DILI ([2]; ref Aleo 2019): +VE; In vivo DILI ([2]; ref Schadt 2015): -VE; In vivo DILI ([2]; ref Xu 2008): -VE |
